According to patent US7601686B2, “Hepatitis C virus inhibitors” (Bristol-Myers Squibb Company, priority 2005, dated 2009):
pIC50: −log10 of the molar value.

Molecular target: T1, HCV NS3/4A protease complex, H77 strain (Hepatitis C virus genotype 1a, UniProt P27958, C1454S/C1711G)
T1 construct: recombinant HCV NS3/4A protease complex (amino acids 1027 to 1711) for these strains; inferred from pET21b vector and Ni-NTA purification; made in house; host or cells: Escherichia coli BL21 (DE3), pET21b
T1 sequence (P27958 1027-1711 C1454S/C1711G, one chain of several): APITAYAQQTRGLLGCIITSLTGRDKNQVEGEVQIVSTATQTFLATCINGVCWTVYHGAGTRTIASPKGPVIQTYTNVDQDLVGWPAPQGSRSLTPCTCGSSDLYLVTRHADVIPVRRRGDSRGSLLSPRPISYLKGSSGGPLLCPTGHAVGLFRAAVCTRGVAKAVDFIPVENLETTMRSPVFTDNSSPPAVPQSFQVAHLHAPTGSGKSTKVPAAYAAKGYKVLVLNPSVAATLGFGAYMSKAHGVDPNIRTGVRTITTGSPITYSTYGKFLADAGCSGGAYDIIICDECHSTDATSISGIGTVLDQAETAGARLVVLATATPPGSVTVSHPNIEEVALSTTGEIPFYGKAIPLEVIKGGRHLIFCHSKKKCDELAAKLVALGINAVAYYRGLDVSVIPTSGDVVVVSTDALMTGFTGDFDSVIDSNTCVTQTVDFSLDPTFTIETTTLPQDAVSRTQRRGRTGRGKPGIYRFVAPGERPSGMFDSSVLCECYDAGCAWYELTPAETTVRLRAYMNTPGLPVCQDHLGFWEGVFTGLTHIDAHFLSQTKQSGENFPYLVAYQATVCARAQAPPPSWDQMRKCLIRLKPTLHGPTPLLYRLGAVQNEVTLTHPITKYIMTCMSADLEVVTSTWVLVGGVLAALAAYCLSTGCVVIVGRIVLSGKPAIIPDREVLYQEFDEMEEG
Assay: FRET peptide assay to monitor HCV NS3/4A proteolytic activity (H77 strain)
Assay type: biochemical
Text: Generation of Recombinant HCV NS3/4A Protease Complex
HCV NS3 protease complexes, derived from the BMS strain, H77 strain or J4L6S strain, were generated, as described below. These purified recombinant proteins were generated for use in a homogeneous assay (see below) to provide an indication of how effective compounds of the present disclosure would be in inhibiting HCV NS3 proteolytic activity.
Serum from an HCV-infected patient was obtained from Dr. T. Wright, San Francisco Hospital. An engineered full-length cDNA (compliment deoxyribonucleic acid) template of the HCV genome (BMS strain) was constructed from DNA fragments obtained by reverse transcription-PCR (RT-PCR) of serum RNA (ribonucleic acid) and using primers selected on the basis of homology between other genotype 1a strains. From the determination of the entire genome sequence, a genotype 1a was assigned to the HCV isolate according to the classification of Simmonds et al. (See P Simmonds, K A Rose, S Graham, S W Chan, F McOmish, B C Dow, E A Follett, P L Yap and H Marsden, J. Clin. Microbiol., 31(6), 1493-1503 (1993)). […]

C=CC1CC1(NC(=O)[C@@H]1C[C@@H](NC(=O)c2cc(-c3ccccc3)nc3ccccc23)CN1C(=O)[C@@H](NC(=O)CC1CC1)C(C)(C)C)C(=O)NS(=O)(=O)C1CC1 (stereo partly shown) [Compound 9]
pIC50: 7.39
